ChEMBL document CHEMBL1240314, “Small-molecule inhibitor of p53 binding to mitochondria protects mice from gamma radiation” (2006)
Calls of active or inactive are those of the source.

Key:
HT-1080 = experiment: Antiapoptotic activity against Bax gene-induced apoptosis in human HT1080 cells transfected with pTZV3-CMV-Bax at 10 uM after 24 hrs; format: functional, cell-based
Thymocyte = experiment: Induction of Puma gene expression in gamma-induced mouse thymocytes; format: functional, cell-based
[1] = target: Cellular tumor antigen p53 (Homo sapiens) (UniProt P04637); experiment: Inhibition of p53-mediated transactivation of promoter bax in human H1299 cells at 10 uM after 48 hrs by luciferase reporter assay; format: cell-based
[2] = target: Cellular tumor antigen p53 (Homo sapiens) (UniProt P04637); experiment: Binding affinity to p53 transfected in human Saos-2 cells harboring pLV-53 assessed as cytosolic p53 concentration at 10 uM after 48 hrs; format: cell-based
[3] = target: Cellular tumor antigen p53 (Mus musculus) (UniProt P02340); experiment: Inhibition of p53-mediated transactivation of p21 in gamma-stimulated mouse ConA cells at 10 uM after 6 hrs
Chain of Cellular tumor antigen p53 (Mus musculus) (P02340 whole entry, looked up): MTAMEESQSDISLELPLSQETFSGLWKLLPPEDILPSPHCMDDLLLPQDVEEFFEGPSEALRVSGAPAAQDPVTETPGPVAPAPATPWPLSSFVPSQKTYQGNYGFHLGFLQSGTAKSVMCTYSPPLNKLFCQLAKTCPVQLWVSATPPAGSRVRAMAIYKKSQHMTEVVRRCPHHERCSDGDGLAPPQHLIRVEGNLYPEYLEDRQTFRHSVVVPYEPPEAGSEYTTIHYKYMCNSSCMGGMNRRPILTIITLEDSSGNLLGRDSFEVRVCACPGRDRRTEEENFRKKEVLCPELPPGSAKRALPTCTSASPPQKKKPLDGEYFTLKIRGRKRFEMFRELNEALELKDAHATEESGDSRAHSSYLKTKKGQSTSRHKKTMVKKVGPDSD

Chain of Cellular tumor antigen p53 (Homo sapiens) (P04637 whole entry, looked up): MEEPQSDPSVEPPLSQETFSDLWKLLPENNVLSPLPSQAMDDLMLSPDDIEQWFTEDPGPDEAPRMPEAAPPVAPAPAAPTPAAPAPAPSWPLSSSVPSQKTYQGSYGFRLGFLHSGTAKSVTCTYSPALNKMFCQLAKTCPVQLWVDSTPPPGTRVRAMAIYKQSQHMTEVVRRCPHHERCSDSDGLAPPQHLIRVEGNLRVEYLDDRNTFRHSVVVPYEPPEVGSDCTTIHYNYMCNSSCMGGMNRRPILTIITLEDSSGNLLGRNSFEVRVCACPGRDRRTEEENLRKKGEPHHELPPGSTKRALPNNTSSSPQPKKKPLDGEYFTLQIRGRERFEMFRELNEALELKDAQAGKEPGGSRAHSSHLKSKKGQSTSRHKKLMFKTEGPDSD

NS(=O)(=O)C#Cc1ccccc1
inactive: Activity (HT-1080) | Activity (Thymocyte) | inhibition [1] | Activity [2] | inhibition [3]
